Earlier results, collected in US8318788B2, “Layered pharmaceutical formulations” (priority 2006, dated 2012).

Legend:
[1] = patients presenting primary obesity

## CNCCC(Oc1ccc(C(F)(F)F)cc1)c1ccccc1 (stereo not drawn) [Fluoxetine, N-methyl-3-phenyl-3-[4-(trifluoromethyl)phenoxy]-propan-1-amine]
In vivo
  bioavailability: approximately 72%
  physiological half life: about 24 hours
Mostly albumin
  plasma protein binding: highly bound to plasma proteins

## Cc1cc2c(s1)Nc1ccccc1N=C2N1CCN(C)CC1 [Olanzapine, 2-methyl-4-(4-methyl-1-piperazinyl)-10H-thieno[2,3-b][1,5]benzodiazepine]
In vivo
  effect of food on bioavailability: not affected by food
  first pass metabolism: extensive first pass metabolism
  kinetics: linear kinetics
  time until steady state plasma concentrations are achieved: about a week

## NS(=O)(=O)Cc1noc2ccccc12 [Zonisamide]
[1]
  weight loss: significant weight loss
Carbonic anhydrase
  inhibitory effect on carbonic anhydrase: weak inhibitory effect
